Measurements published in ChEMBL document CHEMBL1149555, “Synthesis and antiproliferative activity of thiazolidine analogs for melanoma” (Bioorg Med Chem Lett, 2007).

Columns and labels:
[1] = Antiproliferative activity against human WM164 cells after 48 hrs by SRB assay; format: functional, cell-based; settings: WM164, 48 h
[2] = Antiproliferative activity against human SK-MEL-188 cells after 48 hrs by SRB assay; format: functional, cell-based; settings: SK-MEL-188, 48 h
[3] = Antiproliferative activity against human fibroblasts after 48 hrs by SRB assay; format: cell-based; settings: Fibroblast

Row | SMILES | IC50 [1] | IC50 [2] | IC50 [3]
1 | CCCCCCCCC/C=C\CCCCCCCNC(=O)[C@@H]1CSC(c2ccc(NC(C)=O)cc2)N1 (stereo partly specified) | 1000 nM | 1400 nM | 10600 nM
2 | CCCCCCCCCCCCCCCCNC(=O)[C@@H]1CSC(c2ccc(NC(C)=O)cc2)N1C (stereo partly specified) | > 100000 nM | 29100 nM | > 100000 nM
3 | CCCCCCCCNC(=O)[C@@H]1CSC(c2cc(OC)c(OC)c(OC)c2)N1 (stereo partly specified) | 19600 nM | 17100 nM | 20800 nM
4 | CCCCCCCCCCCCCCNC(=O)[C@@H]1CSC(c2ccc(NC(C)=O)cc2)N1 (stereo partly specified) | 600 nM | 2300 nM | 3600 nM
5 | CCCCCCCCCCCCCCCCNC(=O)[C@@H]1CSC(c2cc(OC)c(OC)c(OC)c2)N1 (stereo partly specified) | 700 nM | 1800 nM | 2400 nM
6 | CCCCCCCCCCCCCCCCNC(=O)[C@@H]1CSC(c2ccc(NC(C)=O)cc2)N1 (stereo partly specified) | 600 nM | 2100 nM | 19100 nM
7 | CCCCCCCCCCCCCCCCNC(=O)[C@@H]1CSC(c2ccc(N)cc2)N1 (stereo partly specified) | 1400 nM | 2300 nM | 7400 nM
8 | CCCCCCCCCCNC(=O)[C@@H]1CSC(c2ccc3c(c2)OCO3)N1 (stereo partly specified) | 4500 nM | 6600 nM | 8200 nM
9 | CCCCCCCCCCCCNC(=O)[C@@H]1CSC(c2ccc(NC(C)=O)cc2)N1 (stereo partly specified) | 1200 nM | 2400 nM | 3500 nM
10 | COc1cc(C2SCC3C(=O)N4C(CSC4c4cc(OC)c(OC)c(OC)c4)C(=O)N32)cc(OC)c1OC (stereo unspecified) | > 50000 nM | > 50000 nM | > 50000 nM
11 | CCCCCCCCCCCCCCNC(=O)[C@@H]1CSC(c2cc(OC)c(OC)c(OC)c2)N1 (stereo partly specified) | 1600 nM | 2000 nM | 2600 nM
12 | CCCCCCCCCCCCCCNC(=O)[C@@H]1CSC(c2ccc(OC)c(OC)c2)=N1 | 42900 nM | 19100 nM | > 50000 nM
13 | CCCCCCCCCCCCCCNC(=O)[C@@H]1CSC(c2ccc(OC)c(OC)c2)N1 (stereo partly specified) | 800 nM | 1500 nM | 2800 nM
14 | CCCCCCCCCCNC(=O)[C@@H]1CSC(c2cc(OC)c(OC)c(OC)c2)N1 (stereo partly specified) | 2100 nM | 14500 nM | 6700 nM
15 | CCCCCCCCCCCCCCCCCNC(=O)[C@@H]1CSC(c2ccc(NC(C)=O)cc2)N1 (stereo partly specified) | 2400 nM | 8500 nM | 35800 nM
16 | CCCCCCCCCCCCCCNC(=O)[C@H]1CSC(c2cc(OC)c(OC)c(OC)c2)N1 (stereo partly specified) | 1100 nM | 2600 nM | 4100 nM
17 | CCCCCCCCCCCCCCCCNC(=O)[C@@H]1CSC(c2ccccc2)N1 (stereo partly specified) | 700 nM | 1900 nM | 2200 nM

Row | SMILES | IC50 [1] | IC50 [2] | IC50 [3]
18 | CCCCCCCCCCCCNC(=O)[C@@H]1CSC(c2ccc3c(c2)OCO3)N1 (stereo partly specified) | 2500 nM | 3500 nM | 5200 nM
19 | CCCCCCCCCCCCCCCCNC(=O)[C@H]1CSC(c2ccc(NC(C)=O)cc2)N1 (stereo partly specified) | 1400 nM | 3200 nM | 22600 nM
20 | CCCCCCCCCCCCCCNC(=O)[C@@H]1CSC(c2ccc3c(c2)OCO3)N1 (stereo partly specified) | 1000 nM | 1600 nM | 4200 nM
21 | CCCCCCCCCCCCCCNC(=O)[C@@H]1CSC(c2ccccc2)N1 (stereo partly specified) | 600 nM | 1900 nM | 2800 nM
22 | CCCCCCCCCCNC(=O)[C@@H]1CSC(c2ccc(OC)c(OC)c2)N1 (stereo partly specified) | 6100 nM | 11900 nM | 6300 nM
23 | CNC(=O)c1cc(Oc2ccc(NC(=O)Nc3ccc(Cl)c(C(F)(F)F)c3)cc2)ccn1 [SORAFENIB] | 4900 nM | 5400 nM | 15100 nM
24 | CCCCCCCCCCCCCCCCNC(=O)[C@@H]1CSC(c2ccc(OC)c(OC)c2)N1 (stereo partly specified) | 500 nM | 1500 nM | 2100 nM
25 | CN(C)/N=N/c1[nH]cnc1C(N)=O [DACARBAZINE] | > 100000 nM | > 100000 nM | –
26 | CCCCCCCCCCCCCCCCCCNC(=O)[C@@H]1CSC(c2ccc(NC(C)=O)cc2)N1 (stereo partly specified) | 11600 nM | 22300 nM | > 60000 nM
27 | CCCCCCCCCCCCCCNC(=O)[C@@H]1CSC(c2ccccc2)=N1 | > 50000 nM | 42100 nM | > 50000 nM
28 | CCCCCCCCCCCCNC(=O)[C@@H]1CSC(c2cc(OC)c(OC)c(OC)c2)N1 (stereo partly specified) | 2400 nM | 2100 nM | 2400 nM
29 | CCCCCCCCCCCCNC(=O)[C@@H]1CSC(c2ccc(N)cc2)N1 (stereo partly specified) | 1400 nM | 2200 nM | 4100 nM
30 | CCCCCCCCCCCCCCCCNC(=O)[C@@H]1CSC(c2ccc3c(c2)OCO3)N1 (stereo partly specified) | 1800 nM | 1600 nM | 5700 nM
31 | CCCCCCCCC/C=C/CCCCCCCNC(=O)[C@@H]1CSC(c2ccc(NC(C)=O)cc2)N1 (stereo partly specified) | 1400 nM | 3300 nM | 18000 nM
32 | CON(C)C(=O)[C@@H]1CSC(c2ccccc2)N1 (stereo partly specified) | > 100000 nM | > 100000 nM | > 100000 nM
33 | CCCCCCCCCCCCNC(=O)[C@@H]1CSC(c2ccc(OC)c(OC)c2)N1 (stereo partly specified) | 1600 nM | 2900 nM | 4500 nM
34 | CCCCCCCCCCCCCCCNC(=O)[C@@H]1CSC(c2ccc(NC(C)=O)cc2)N1 (stereo partly specified) | 1000 nM | 1600 nM | 14300 nM
